Patent US10781224B2, “Bis(oxymethyl)phosphinic acid and biogenic metal salts thereof as regulators of plant growth and development” (priority 2016, dated 2020)

How the values were obtained:
[1] = system: winter wheat (Vershin variety); experiment: Winter wheat seed treatment with BHMPA salts: germinating power (length and mass of roots and sprouts); assay type: in vivo
Method in brief: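 Seeds (50 per Petri dish on two layers of filter paper) soaked 1 h in BHMPA or its Ca, Mg, Na, Co, Mn, Cu or Zn salts at 1·10^−6-1·10^−12%, with water controls. Germination energy read on day 4, germination on day 8 (wheat) or day 7 (rice, corn), as % means of four replicates. Germinating power taken as root and sprout length plus wet and dry mass per 100 seedlings.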

[2] = system: rice (Diamant variety); experiment: Rice seed treatment with BHMPA salts: germination energy and germination rate; assay type: in vivo
Method in brief: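 Corn, winter wheat and rice seeds (50 per dish, on filter paper) were soaked for 1 h in BHMPA or its metal salts at 1·10^−6-1·10^−12%, with water as control. Germination energy was read on day 4 and germination rate on day 8 for wheat and day 7 for rice and corn, following GOST 12038-84, as the mean of four replicates.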

[3] = comparative study, 1·10^−9% solution
[4] = rice seed treatment, solution 1 · 10^−11%
[5] = seed treatment, concentration 1 · 10^−6%
[6] = seed treatment, concentration 1 · 10^−7%
[7] = seed treatment, concentration 1 · 10^−8%
[8] = seed treatment, concentration 1 · 10^−9%
[9] = seed treatment, concentration 1 · 10^−10%
[10] = seed treatment, concentration 1 · 10^−11%
[11] = seed treatment, concentration 1 · 10^−12%

O=P([O-])(CO)CO.[Na+] [Na-salt, Sodium BHMPA Salt]
effectiveness on germinating power ([1]; 1·10^−6% and 1·10^−12% solutions): marginally effective | Length, root ([1]; 1·10^−6% solution): 5.0 cm | Length, root, + % to control ([1]; 1·10^−6% solution): −5.7% | Length, sprout ([1]; 1·10^−6% solution): 6.0 cm | Length, sprout, + % to control ([1]; 1·10^−6% solution): −1.6% | Mass, dry, root ([1]; 1·10^−6% solution): 0.37 g/100 plantlings | Mass, dry, root, + % to control ([1]; 1·10^−6% solution): −10% | Mass, dry, sprout ([1]; 1·10^−6% solution): 0.54 g/100 plantlings | Mass, dry, sprout, + % to control ([1]; 1·10^−6% solution): −3.6% | Mass, wet, root ([1]; 1·10^−6% solution): 2.35 g/100 plantlings | Mass, wet, root, + % to control ([1]; 1·10^−6% solution): −3.7% | Mass, wet, sprout ([1]; 1·10^−6% solution): 4.51 g/100 plantlings | Mass, wet, sprout, + % to control ([1]; 1·10^−6% solution): −3.6% | Length, root ([1]; 1·10^−7% solution): 5.3 cm | Length, root, + % to control ([1]; 1·10^−7% solution): 0% | Length, sprout ([1]; 1·10^−7% solution): 6.3 cm | Length, sprout, + % to control ([1]; 1·10^−7% solution): 3.3% | Mass, dry, root ([1]; 1·10^−7% solution): 0.45 g/100 plantlings | Mass, dry, root, + % to control ([1]; 1·10^−7% solution): 10% | Mass, dry, sprout ([1]; 1·10^−7% solution): 0.56 g/100 plantlings | Mass, dry, sprout, + % to control ([1]; 1·10^−7% solution): 0% | Mass, wet, root ([1]; 1·10^−7% solution): 2.58 g/100 plantlings | Mass, wet, root, + % to control ([1]; 1·10^−7% solution): 5.7% | Mass, wet, sprout ([1]; 1·10^−7% solution): 5.03 g/100 plantlings | Mass, wet, sprout, + % to control ([1]; 1·10^−7% solution): 7.5% | Length, root ([1]; 1·10^−8% solution): 5.6 cm | Length, root, + % to control ([1]; 1·10^−8% solution): 5.7% | Length, sprout ([1]; 1·10^−8% solution): 6.7 cm | Length, sprout, + % to control ([1]; 1·10^−8% solution): 10% | Mass, dry, root ([1]; 1·10^−8% solution): 0.47 g/100 plantlings | Mass, dry, root, + % to control ([1]; 1·10^−8% solution): 14.6% | Mass, dry, sprout ([1]; 1·10^−8% solution): 0.63 g/100 plantlings | Mass, dry, sprout, + % to control ([1]; 1·10^−8% solution): 12.5% | Mass, wet, root ([1]; 1·10^−8% solution): 2.73 g/100 plantlings | Mass, wet, root, + % to control ([1]; 1·10^−8% solution): 12% | Mass, wet, sprout ([1]; 1·10^−8% solution): 5.37 g/100 plantlings | Mass, wet, sprout, + % to control ([1]; 1·10^−8% solution): 15% | Length, root ([1]; 1·10^−9% solution): 5.7 cm | Length, root, + % to control ([1]; 1·10^−9% solution): 7.5% | Length, sprout ([1]; 1·10^−9% solution): 6.9 cm | Length, sprout, + % to control ([1]; 1·10^−9% solution): 13% | Mass, dry, root ([1]; 1·10^−9% solution): 0.56 g/100 plantlings | Mass, dry, root, + % to control ([1]; 1·10^−9% solution): 36.5% | Mass, dry, sprout ([1]; 1·10^−9% solution): 0.69 g/100 plantlings | Mass, dry, sprout, + % to control ([1]; 1·10^−9% solution): 23% | Mass, wet, root ([1]; 1·10^−9% solution): 3.21 g/100 plantlings | Mass, wet, root, + % to control ([1]; 1·10^−9% solution): 31.5% | Mass, wet, sprout ([1]; 1·10^−9% solution): 5.41 g/100 plantlings | Mass, wet, sprout, + % to control ([1]; 1·10^−9% solution): 15.6% | Length, root ([1]; 1·10^−10% solution): 5.6 cm | Length, root, + % to control ([1]; 1·10^−10% solution): 5.7% | Length, sprout ([1]; 1·10^−10% solution): 6.5 cm | Length, sprout, + % to control ([1]; 1·10^−10% solution): 6.5% | Mass, dry, root ([1]; 1·10^−10% solution): 0.46 g/100 plantlings | Mass, dry, root, + % to control ([1]; 1·10^−10% solution): 12% | Mass, dry, sprout ([1]; 1·10^−10% solution): 0.61 g/100 plantlings | Mass, dry, sprout, + % to control ([1]; 1·10^−10% solution): 9% | Mass, wet, root ([1]; 1·10^−10% solution): 2.66 g/100 plantlings | Mass, wet, root, + % to control ([1]; 1·10^−10% solution): 9% | Mass, wet, sprout ([1]; 1·10^−10% solution): 5.33 g/100 plantlings | Mass, wet, sprout, + % to control ([1]; 1·10^−10% solution): 14% | Length, root ([1]; 1·10^−11% solution): 5.5 cm | Length, root, + % to control ([1]; 1·10^−11% solution): 3.8% | Length, sprout ([1]; 1·10^−11% solution): 6.4 cm | Length, sprout, + % to control ([1]; 1·10^−11% solution): 5% | Mass, dry, root ([1]; 1·10^−11% solution): 0.43 g/100 plantlings | Mass, dry, root, + % to control ([1]; 1·10^−11% solution): 5% | Mass, dry, sprout ([1]; 1·10^−11% solution): 0.60 g/100 plantlings | Mass, dry, sprout, + % to control ([1]; 1·10^−11% solution): 7% | Mass, wet, root ([1]; 1·10^−11% solution): 2.57 g/100 plantlings | Mass, wet, root, + % to control ([1]; 1·10^−11% solution): 5.3% | Mass, wet, sprout ([1]; 1·10^−11% solution): 5.11 g/100 plantlings | Mass, wet, sprout, + % to control ([1]; 1·10^−11% solution): 9% | Length, root ([1]; 1·10^−12% solution): 5.4 cm | Length, root, + % to control ([1]; 1·10^−12% solution): 2% | Length, sprout ([1]; 1·10^−12% solution): 6.3 cm | Length, sprout, + % to control ([1]; 1·10^−12% solution): 3.3% | Mass, dry, root ([1]; 1·10^−12% solution): 0.42 g/100 plantlings | Mass, dry, root, + % to control ([1]; 1·10^−12% solution): 2% | Mass, dry, sprout ([1]; 1·10^−12% solution): 0.58 g/100 plantlings | Mass, dry, sprout, + % to control ([1]; 1·10^−12% solution): 3.6% | Mass, wet, root ([1]; 1·10^−12% solution): 2.41 g/100 plantlings | Mass, wet, root, + % to control ([1]; 1·10^−12% solution): −1.2% | Mass, wet, sprout ([1]; 1·10^−12% solution): 5.03 g/100 plantlings | Mass, wet, sprout, + % to control ([1]; 1·10^−12% solution): 7.5% | Length, root [1, 3]: 8.7 cm | Length, root, + % to control [1, 3]: 0% | Length, sprout [1, 3]: 6.4 cm | Length, sprout, + % to control [1, 3]: 3% | Mass, dry, root [1, 3]: 0.64 g/100 plantlings | Mass, dry, root, + % to control [1, 3]: 3% | Mass, dry, sprout [1, 3]: 0.53 g/100 plantlings | Mass, dry, sprout, + % to control [1, 3]: 4% | Mass, wet, root [1, 3]: 4.19 g/100 plantlings | Mass, wet, root, + % to control [1, 3]: 16% | Mass, wet, sprout [1, 3]: 4.73 g/100 plantlings | Mass, wet, sprout, + % to control [1, 3]: 19% | Germination energy, % [2, 4]: 85.0% | Germination rate, % [2, 4]: 92.0% | Germination energy ([2]; rice, 1·10^−11% solution): 84.0% | Germination rate ([2]; rice, 1·10^−11% solution): 90.3% | Germination energy [2, 5]: 74.7% | Germination rate [2, 5]: 80.3% | Germination energy [2, 6]: 76.7% | Germination rate [2, 6]: 82.8% | Germination energy [2, 7]: 78.3% | Germination rate [2, 7]: 84.0% | Germination energy [2, 8]: 80.0% | Germination rate [2, 8]: 86.3% | Germination energy [2, 9]: 82.3% | Germination rate [2, 9]: 88.0% | Germination energy [2, 10]: 84.0% | Germination rate [2, 10]: 90.3% | Germination energy [2, 11]: 79.0% | Germination rate [2, 11]: 85.3%
